From patent US20260232661A1, “Compositions and Uses Thereof” (Purposeful IKE, priority 2020, published 2026)

Columns and labels:
Format in all cases: in vivo
Fmr1 KO mice [1] = test: Open field test (hyperactivity)
Procedure: (§1) Fmr1 KO mice backcrossed to the FVB strain and WT littermates were used during experiments. TransnetXY Automated Genotyping (www.transnetyx.com/). TRANSNETYX, INC., 8110 Cordova Rd. Suite 119, Cordova, TN 38016, USA was used for genotyping. The animals were pretreated for 14 days. The active ingredients of Sumatriptan and Ergoloid were in a water carrier, whereas oxitriptan was in a methanol carrier.
(§2) The mice were housed in plastic cages (35×30×12 cm), 5 in each. The room temperature (21±2° C.), relative humidity (55±5%), a 12-h light-dark cycle (lights on 7 a.m.-7 p.m.) and air exchange (16 times per h) were automatically controlled. The animals had free access to commercial food pellets and water. Testing was conducted during the light phase. Ten mice per treatment group were used for the AGS experiments. Experiments were conducted in line with the requirements of the UK Animals (Scientific Procedures) Act, 1986.
(§3) All experiments were conducted with the experimenter blind to genotype and drug treatment. Separate investigators prepared and coded dosing solutions, allocated the mice to the study treatment groups, dosed the animals, and collected the Audiogenic Seizure data.
(§4) Behavior testing was conducted at 2 weeks. The behavioral tests were as follows: 1. Hyperactivity: Open field; 2. Stereotypy: Self-grooming; 3. Sociability: Three chamber partition test; 4. Memory and Learning: Novel Object Recognition; 5. Anxiety: hyponeophagia; and 6. Test of daily living: marble burying
For hyperactivity, the open field test (OFT) is a common measure of exploratory behavior and general activity in both mice and rats, where both the quality and quantity of the activity can be measured. Principally, the open field (OF) is an enclosure, generally square, rectangular, or circular in shape with surrounding walls that prevent escape. The OFT is also commonly used as a mechanism to assess the sedative, toxic, or stimulant effects of compounds (Gould 2009).
(§5) The treatment of the mice with OX (Oxitriptan), SU (Sumatriptan), ER (Ergoloid mesylates, also referred to as ergoloid herein) were according to the matrix shown below in Table 1.
(§6) The experimental procedures described above for Example 1 were used in the following tests, as well as the addition of two further behaviour tests as described below. An SSRI (selective serotonin re-uptake inhibitor) was co-dosed with the ergoloid mesylates and oxitriptan to assess the effect of the ergoloid mesylates and oxitriptan treatment on a subject already receiving SSRI treatment.
(§7) The treatment of the mice with OX (Oxitriptan), ER (Ergoloid mesylates) and FL (fluvoxamine) were according to the matrix shown below in Table 21. The triple combination involved dosing of 2 mg/kg ergoloid mesylates, 40 mg/kg oxitriptan and 40 mg/kg of fluvoxamine (the SSRI).

Fmr1 KO mice [2] = test: Self-grooming (stereotypy); settings: Dunnett's test, alpha 0.05; doses as E31
Procedure: as §1, §2, §3
Behavior testing was conducted at 2 weeks. The behavioral tests were as follows: 1. Hyperactivity: Open field; 2. Stereotypy: Self-grooming; 3. […]
For stereotypy, self-grooming was assessed. […]

Fmr1 KO mice [3] = test: Three chamber partition test (sociability); parameters: Mean Diff., N_WT-V vs. treated KO (Sociability) / Mean 2, treated KO group (Sociability) / Mean Diff., F_KO-V vs. F_KO treated (Sociability) / Mean Diff., F_KO-V vs. N_KO treated (Sociability) / Mean 2, F_KO treated group (Sociability) / Mean 2, N KO treated group (Sociability) / Mean 2, N_KO treated group (Sociability) / Data table Sociability, F_KO-Sumatriptan / Data table Sociability, N_KO-Sumatriptan / Data table Sociability, F_KO-Oxitriptan: unit not given here
Procedure: as §1, §2, §3, §4
For sociability a three chamber partition test was utilized. The three-chamber paradigm test known as Crawley's sociability and preference for social novelty protocol has previously been successfully employed to study social affiliation and social memory in several inbred and mutant mouse lines. The main principle of the test was based on the free choice by a subject mouse to spend time in any of three box's compartments during two experimental sessions, including indirect contact with one or two mice with which it was unfamiliar (Kaidanovich-Beilin 2011).
(§8) The treatment of the mice with OX (Oxitriptan), SU (Sumatriptan), ER (Ergoloid mesylates, also referred to as ergoloid herein) were according to the matrix shown below in Table 1. […]

Fmr1 KO mice [4] = test: Novel Object Recognition (memory and learning); parameters: Mean Diff., N_WT-V vs. treated KO (NOR) / Mean 2, treated KO group (NOR) / Mean Diff., F_KO-V vs. F_KO treated (NOR) / Mean Diff., F_KO-V vs. N_KO treated (NOR) / Mean 2, F_KO treated group (NOR) / Mean 2, N_KO treated group (NOR): unit not given here
Procedure: as §1, §2, §3, §4
For memory and learning, a novel object recognition (NOR) task was used to evaluate the rodents' ability to recognize a novel object in the environment. […] The task procedure consists of three phases: habituation, familiarization, and test phase (Antunes 2012).
as §8

Fmr1 KO mice [5] = test: Hyponeophagia test (anxiety)
Procedure: as §1, §2, §3, §4
For anxiety a hyponeophagia test was conducted. Mice and rats cannot vomit, due to the tightness of the cardiac sphincter of the stomach, so to overcome the problem of potential food toxicity they have evolved a strategy of first ingesting only very small amounts of novel substances. The amounts ingested then gradually increase until the animal has determined whether the substance is safe and nutritious. So the old rat-catchers would first put a palatable substance such as oatmeal, which was to be the vehicle for the toxin, in the infested area (Deacon 2011).
as §5, §6, §7

Fmr1 KO mice [6] = test: Test of daily living (nesting; marble burying)
Procedure: as §1, §2, §3, §4
For test of daily living, nesting was assessed as nest building is an innate behavior in rodents, even when raised in laboratory settings. Synthetic and/or natural materials (such as twine, tissue, cotton, paper, and hay) are provided as a gauge of their overall well-being and as an ancillary assessment to predict the possible decline in cognition. Typically, changes in nesting behaviors, such as failure to create a nest, indicate a change in health or welfare. In addition, nesting behavior is sensitive to many environmental and physiological challenges, as well as many genetic mutations underlying pathological disease states (Gaskill 2013).
as §5, §6, §7

[7] = KO mice, mg/kg: Sumatriptan 20, Oxitriptan 40, Ergoloid 4, Ergoloid 2+Sumatriptan 10, Ergoloid 2+Oxitriptan 40

## N[C@@H](Cc1c[nH]c2ccc(O)cc12)C(=O)O [Oxitriptan]
Fmr1 KO mice [1]; Dunnett's test, alpha 0.05, doses as E1
  Below threshold? WT-V vs. treated KO (Open Field): Yes
Fmr1 KO mice [1]; Dunnett's test, alpha 0.05, doses as E26
  Significant? KO-V vs. treated KO (Open Field): Yes
Fmr1 KO mice [1]; KO mice, mg/kg: Sumatriptan 20, 5-HTP 80, EM 4, Ergoloid 2+Sumatriptan 10, Ergoloid 2+Oxitriptan 40
  Mean Diff., WT-V vs. treated KO (Open Field): −512.4
Fmr1 KO mice [2]
  Significant? KO-V vs. treated KO (Stereotypy): Yes
Fmr1 KO mice [3]; Dunnett's test, alpha 0.05, F_ groups, doses as E56
  Significant? F_KO-V vs. F_KO treated (Sociability): Yes
Fmr1 KO mice [3]; Dunnett's test, alpha 0.05, N_ groups, doses as E61
  Significant? F_KO-V vs. N_KO treated (Sociability): Yes
Fmr1 KO mice [3]; Dunnett's test, alpha 0.05, groups and doses as E21
  Significant? N_WT-V vs. treated KO (Sociability): No
Fmr1 KO mice [3]; Dunnett's test, groups and doses as E21
  Summary, N_WT-V vs. treated KO (Sociability): ns
Fmr1 KO mice [3]; F_, KO mice, Oxitriptan 40 mg/kg, individual animals
  Data table Sociability, F_KO-Oxitriptan: 51
Fmr1 KO mice [3]; N_ groups, mg/kg: Sumatriptan 20, Oxitriptan 40, Ergoloid 4, Ergoloid 2+Oxitriptan 40
  Mean Diff., F_KO-V vs. N_KO treated (Sociability): −17.20
Fmr1 KO mice [3]; N_ groups, mg/kg: Sumatriptan 20, Oxitriptan 40, Ergoloid 4, F_KO Ergoloid 2+Sumatriptan 10, N_KO Ergoloid 2+Oxitriptan 40
  Mean Diff., N_WT-V vs. treated KO (Sociability): 0.3000
Fmr1 KO mice [3]; comparison against F_KO-V, doses as E61
  Mean 2, N_KO treated group (Sociability): 95.80
Fmr1 KO mice [3]; comparison against N_WT-V, groups and doses as E21
  Mean 2, treated KO group (Sociability): 98.80
Fmr1 KO mice [4]; Dunnett's test, alpha 0.05, F_ groups, doses as E46
  Significant? F_KO-V vs. F_KO treated (NOR): No
Fmr1 KO mice [4]; Dunnett's test, alpha 0.05, N_ groups, doses as E51
  Significant? F_KO-V vs. N_KO treated (NOR): Yes
Fmr1 KO mice [4]; Dunnett's test, alpha 0.05, groups and doses as E16
  Significant? N_WT-V vs. treated KO (NOR): Yes
Fmr1 KO mice [4]; Dunnett's test, F_ groups, doses as E46
  Summary, F_KO-V vs. F_KO treated (NOR): ns
Fmr1 KO mice [4]; comparison against F_KO-V, doses as E46
  Mean 2, F_KO treated group (NOR): 5.636
Fmr1 KO mice [5]; Dunnett's test, alpha 0.05, doses as E6
  Significant? WT-V vs. treated KO (Hyponeophagia): No
Fmr1 KO mice [5]; Dunnett's test, alpha 0.05, doses as E36
  Significant? KO-V vs. treated KO (Hyponeophagia): Yes
Fmr1 KO mice [5]; Dunnett's test, doses as E6
  Summary, WT-V vs. treated KO (Hyponeophagia): ns
Fmr1 KO mice [5]; [7]
  Mean Diff., WT-V vs. treated KO (Hyponeophagia): −0.7000
Fmr1 KO mice [6]; Dunnett's test, alpha 0.05, doses as E11
  Significant? WT-V vs. treated KO (Test of daily living): No
Fmr1 KO mice [6]; Dunnett's test, alpha 0.05, doses as E41
  Significant? KO-V vs. treated KO (Test of daily living): Yes
Fmr1 KO mice [6]; Dunnett's test, doses as E11
  Summary, WT-V vs. treated KO (Test of daily living): ns
Fmr1 KO mice [6]; KO mice, mg/kg: Sumatriptan 20, Oxitriptan 40, Ergoloid 4, Ergoloid 2+Oxitriptan 40
  Mean Diff., KO-V vs. treated KO (Test of daily living): −3.700
Fmr1 KO mice [6]; [7]
  Mean Diff., WT-V vs. treated KO (Test of daily living): −0.1000
Fmr1 KO mice [6]; comparison against KO-V, doses as E41
  Mean 2, treated KO group (Test of daily living): 4.900
Fmr1 KO mice [6]; comparison against WT-V, doses as E11
  Mean 2, treated KO group (Test of daily living): 4.900
